Kd and inhibition data for 1 compound are collected here from US20220354835A1, “COMPOUNDS FOR DEGRADING TAU PROTEIN AGGREGATES AND USES THEREOF” (Aprinoia Therapeutics Limited, priority 2019, published 2022).

The term Kd denotes the free concentration of one partner at which half of the binding sites on the other are occupied at equilibrium, for simple one-to-one binding.

A value given as a limit tells only on which side of the number the result lay.

Assay [1] deals with T1, heparin-induced aggregated tau (aTau), full-length 2N4R human Tau (Homo sapiens, UniProt P10636).
T1 construct: transformed with a full-length 2N4R tau expression plasmid; made in house; host or cells: E. coli BL21
The experiment in a line: In vitro fluorometric aTau binding assay. Particulars: 0.04 μM aTau, serially diluted compound 10 to 0.00017 μM, 37° C. 1 hour, fluorescence. The procedure:
(A) Expression and purification of human Tau: 1 mM IPTG (Sangon Biotech, Cat. No A100487) was used to induce production of tau by bacteria (BL21, Invitrogen, Cat. No C600003) transformed with a full-length 2N4R tau expression plasmid. After 3 hours, cell pellet was resuspended in lysis buffer (100 mM PIPES, 1 mM EGTA, 1 mM MgSO4, pH 6.8) and lysed by sonication followed by centrifugation (15,000 rpm, 15 min, 4° C.). The supernatant was then placed in a boiling water bath for 20 min, followed by centrifugation (15,000 rpm, 15 min, 4° C.). Supernatant was loaded onto a Q-Sepharose® Fast Flow column (GE healthcare, Cat. No 17-0510-01), the flow-through fraction was loaded onto an SP-Sepharose® Fast Flow column (GE healthcare, Cat. No 17-0729-01), and tau protein was eluted with elution buffer (100 mM PIPES, 1 M NaCl, 1 mM EGTA, 1 mM MgSO4, 0.2 M NaCl, pH 6.8). Collected fractions of tau-containing eluates were pooled, concentrated and dialyzed against HEPES buffer (25 mM HEPES, 0.1 mM EDTA, 0.5 mM DTT, 100 mM NaCl, pH 7.2) and stored at −80° C. in small aliquots until use. Protein concentration was determined by UV absorption.
(B) Preparation of heparin-induced aggregated tau (aTau): 2 μM of tau prepared in 30 mM Tris-HCl, pH 7.5 buffer was incubated in tube with 15 μM heparin (Sigma, Cat. No H3149) at 37° C. for 24 hours.
(D) In vitro fluorometric aTau binding assays: 2 μM aTau was diluted to 0.04 μM with 30 mM Tris-HCl (pH 6.8), and then incubated with serially diluted compound (three-fold serial dilutions, from 10 to 0.00017 μM) in a 96-well plate (Corning, Cat. No 3573) at 37° C. for 1 hour. Fluorescence intensity (excitation/emission=370/500 nm) of APN-0729 was read by microplate spectrometer (EnSpire 2300, PerkinElmer). Compound Kd values were calculated using the following equation: Y=Bmax* X (Kd+X), where X is the concentration of compound; Y is the fluorescence signal of (compound+aTau)−(compound+DMSO); and Bmax is the maximum signal.

For assay [2], the target named is T2, Tau aggregates in P301L-Tau-FL-GFP HEK293 cells (Homo sapiens, UniProt P10636, P618L).
T2 construct: express full-length human tau T40 (2N4R) carrying the P301L mutation with a GFP tag; expressed in transfected cells
The experiment in a line: Tau degradation assay (APNmAb005 ELISA-based Tau aggregation assay). The assay is classed as cell-based. Particulars: 1 μM of compound, 24 hours, P301L-Tau-FL-GFP HEK293 cells seeded with rTg4510 brain lysate; read-out: Activity (reduction of tau aggregates). The procedure:
(A). Cell-based model of Tau inclusion formation: Six month old rTg4510 mouse brain lysates were used as the source of tau seeds, prepared as described in Example 26 above. P301L-Tau-FL-GFP HEK293 cells represent HEK293 cells express full-length human tau T40 (2N4R) carrying the P301L mutation with a GFP tag (P301L-Tau-FL-GFP). 1×10^6 of P301L-Tau-FL-GFP HEK293 cells were cultured on a 6-well plate in culture medium containing DMEM/F-12 (Gibco) supplemented with 10% fetal bovine serum (FBS) (Gibco), 1% Penicillin-Streptomycin (Gibco) and 0.5 mg/ml geneticin (Thermo Fisher Scientific) for 24 hours to reach 70-90% confluency, indicating the cells were ready for transfection. 50 μg of 6-month-old rTg4510 mouse brain lysate was diluted in 400 μL of serum free medium and mixed with 16 μL of lipofectamine 3000 reagent (Thermo Fisher Scientific) diluted in 400 μl of serum free medium. A solution mixture of rTg4510 brain lysate and lipofectamine 3000 was incubated at room temperature for 25 min. The culture media were removed, and then a solution mixture of rTg4510 lysate and lipofectamine 3000 was added to the cells for transfection. The solution mixture was incubated at room temperature for five hours, followed by medium change to 10% fetal bovine serum (FBS). After two-day incubation, Tau aggregates (Tau spots) were induced and images were acquired by ImageXpress Micro Confocal high-content imaging system (Molecular Devices) as described in Example 52 above. Analysis was performed by two customized modules in MetaXpress software (Molecular Devices) for aggregated tau analysis. Output included cell numbers, numbers of tau spots, average intensity of tau spots, and average size of tau spots.
(B). Compound treatment: 100 μL of 3×10^4 cells comprising Tau aggregates, prepared as described above in step (A), were plated on a 96-well plate coated with poly-D-lysine (BD Biosciences) and cultured for 24 hours. Compounds to be tested were dissolved in culture medium containing 0.1% DMSO. Each of test compounds in the concentration of 1, 0.2 and 0.04 μM was added to the cells comprising Tau aggregates and incubated at 37° C. for 24 hours. After that, culture medium was removed, cells were washed with PBS solution and then lysed using 30 μL of lysis buffer (PBS containing 0.3% Triton X-100 and 400 mM NaCl) for one hour at 4° C., and then cell lysate was diluted by 170 μl of PBS containing 400 mM NaCl. Cell lysate was filtrated by a […] filtration plate (Pall) and applied for Tau aggregation assay.
(C). Control cell lysate: control cell lysate was collected from non-seeded cells.
(D). ELISA-based Tau aggregation assay: APNmAb005 ELISA kit for Tau aggregation assay was designed and developed to detect abnormal tau aggregates in buffered solution or cell lysate by using anti-Tau APNmab005 as capture and detection antibody. This antibody is a highly specific antibody bound to human tau aggregates accumulated in mammalian cells. APNmAb005 is recited in PCT Patent Application No. PCT/M2020/057415, filed Aug. 5, 2020, which is incorporated herein by reference.
0.15 μg of APNmAb005 in 100 mM sodium carbonate buffer (pH 9.6) was coated on a high-binding polystyrene 96-well microplate (Greiner Bio-One) at 4° C. overnight. The microplate was washed with PBS followed by treatment with Intercept (PBS) blocking buffer (LI-COR) at room temperature for 2 hours. After that, the microplate was washed with PBS, and then the cell lysate with compound treatment, prepared as described above in step (C), was added into each well of the microplate and incubated at room temperature for 2 hours. The microplate was washed with PBS and then incubated with HRP-conjugated secondary antibody APNmAb005 at room temperature for 3 hours. HRP-conjugated secondary antibody APNmAb005 was prepared using HRP conjugation kit (Abcam,ab102890). The microplate was then washed with PBS and incubated with 100 μL of horseradish peroxidase (HRP) substrate at room temperature. […]
(ELISA stands for enzyme-linked immunosorbent assay.)

T1 sequence (P10636 1-441 isoform P10636-8): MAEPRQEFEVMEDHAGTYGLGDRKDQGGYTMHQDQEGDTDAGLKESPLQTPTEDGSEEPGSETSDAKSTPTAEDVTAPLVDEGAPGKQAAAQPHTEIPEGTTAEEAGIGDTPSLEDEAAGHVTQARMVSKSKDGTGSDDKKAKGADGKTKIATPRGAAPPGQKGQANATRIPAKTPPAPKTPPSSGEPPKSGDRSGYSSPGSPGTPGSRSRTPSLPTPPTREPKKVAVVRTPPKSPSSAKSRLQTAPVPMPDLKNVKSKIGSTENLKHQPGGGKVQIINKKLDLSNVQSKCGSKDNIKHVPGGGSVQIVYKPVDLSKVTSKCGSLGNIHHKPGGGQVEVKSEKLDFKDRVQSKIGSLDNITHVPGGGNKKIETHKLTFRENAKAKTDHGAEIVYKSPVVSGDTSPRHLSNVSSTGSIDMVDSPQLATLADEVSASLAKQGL
T2 sequence (P10636 1-441 isoform P10636-8 P301L): as the sequence (P10636 1-441 isoform P10636-8) above, with P301L counted along it

`CN(C)c1ccc(-c2ccc(-c3nc4ccc(NCCOCCOc5ccc6c(c5)CN(C5CCC(=O)NC5=O)C6=O)cc4s3)cc2)cn1` (centres unmarked) [Compound 160313, 3-[6-[2-[2-[[2-[4-[6-(dimethylamino)pyridin-3-yl]phenyl]-1,3-benzothiazol-6-yl]amino]ethoxy]ethoxy]-3-oxo-1H-isoindol-2-yl]piperidine-2,6-dione] displayed a Kd in assay [1] of 80 nM. For the same compound, the inhibition at 1 µM in assay [2] was below 10%.
